The record followed here is patent US8163770B2, “Benzoxathiin derivative” (MSD. K. K., priority 2005, dated 2012).

Data set [1] is described as follows: Test for brain/cerebrospinal fluid transition. In kind it is in vivo. As to conditions: SD male rat, 2 hours after oral administration (10 mg/kg). How it is done: The test compound was orally or intravenously administered to an SD male rat (7 to 10-week age, 200 to 400 g), and under anesthesia with ether for a predetermined period of time, the whole blood was collected from it through the abdominal aorta thereof using a heparin-processed syringe. Next, the head skin was cut, and a dental 30 G needle was stuck into the cervical spine to run through the subarachnoid cavity. Via a tube connected to the dental 30 G needle, from 50 to 100 μL of the cerebrospinal fluid was collected in a 1-mL syringe, and then the brain was taken out. The blood sample was centrifuged (4° C., 6000 revolutions, 10 minutes), and the resulting plasma was stirred with ethanol (containing an internal standard substance) in an amount of three times thereof added to it. The brain sample was homogenized with 2 mL of water added thereto; and a part of it was taken out and stirred with ethanol (containing an internal standard substance) in an amount of three times thereof added to it. The cerebrospinal fluid was stirred with ethanol (containing an internal standard substance) in an amount of three times thereof added to it. The above samples were left at −20° C. for 20 minutes, then centrifuged (4° C., 12,000 g, 10 minutes), and the supernatant was analyzed through LC/MS/MS. According to a relative calibration curve method, the compound concentration in the plasma, in the brain and in the cerebrospinal fluid was determined.

The target of another data set is T1, histamine-H3 receptor (Rattus norvegicus, UniProt Q9QYN8).
T1 construct: from tissue; host or cells: living male rat
T1 sequence (Q9QYN8 whole entry): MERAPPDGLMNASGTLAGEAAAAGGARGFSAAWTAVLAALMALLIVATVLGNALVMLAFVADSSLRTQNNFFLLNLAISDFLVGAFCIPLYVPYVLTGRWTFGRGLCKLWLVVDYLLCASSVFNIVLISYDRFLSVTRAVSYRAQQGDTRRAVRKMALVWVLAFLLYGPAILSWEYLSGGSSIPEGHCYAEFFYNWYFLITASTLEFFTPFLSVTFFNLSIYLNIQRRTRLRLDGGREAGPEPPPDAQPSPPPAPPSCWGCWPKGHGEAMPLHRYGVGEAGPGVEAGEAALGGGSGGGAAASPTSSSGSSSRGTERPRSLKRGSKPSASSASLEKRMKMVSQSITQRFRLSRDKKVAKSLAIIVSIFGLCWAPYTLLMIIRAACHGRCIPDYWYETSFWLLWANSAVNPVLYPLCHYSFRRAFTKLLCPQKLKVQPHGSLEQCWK
Put plainly: Test for antagonistic effect to water-drinking action induced by histamine-H3 receptor selective agonist, R-α-methylhistamine. As to conditions: 10 mg/kg oral, 2 hours before R-α-methylhistamine, water drunk for 1 hour. In kind it is in vivo.

Where two headings read alike, the source gives them in different places.

Experimental for histamine-H3 receptor: Under anesthesia with ketamine xylazine (74 and 11 mg/kg intraabdominal single administration), a brain stereotaxic device was set in the third ventricle of a male DS rat (7 to 10-week age, 200 to 300 g), and a chronic guide cannula (26 gauge, length 11 mm) was inserted into it and fixed with a dental resin. The position of the tip of the guide cannula is at 2.2 mm after the bregma on the midline, and at a depth of 8 mm from the surface of the skull. After a restoration term of about 1 week, R-α-methylhistamine (0.3 μg/1 μL/head, 30% propylene glycol liquid) was administered into the third ventricle. The test compound suspended in an aqueous 0.5% methyl cellulose solution was orally administered to the rat before 2 hours before the R-α-methylhistamine administration; and after the R-α-methylhistamine administration, the amount of water drunk by the rat for 1 hour was measured.

As for `C[C@H]1[C@H](c2ccc(OCCCN3CCCC3)cc2)Oc2ccccc2S1(=O)=O` (single isomer, unassigned) [(2S*,3S*)-2,3-dihydro-3-methyl-2-[4-[3-(1-pyrrolidinyl)propoxy]phenyl]-1,4-benzoxathiin-4,4-dioxide], the “concentration in the brain” value in data set [1] is on record as 6.96 nmol/g. For the same molecule, the concentration at 2 h in data set [1] (cerebrospinal fluid, read-out: concentration in the cerebrospinal fluid) was found to be 174 nM; in data set [1] (plasma, read-out: concentration in the plasma), 980 nM. Further, the “inhibition of the increase in the water drinking induced by R-α-methylhistamine in the third ventricle” value at histamine-H3 receptor is listed as “significantly inhibited”.
